Data on one molecule can be found in ChEMBL document CHEMBL5226392, “Anti-inflammatory Quinoline Alkaloids from the Roots of Waltheria indica” (J Nat Prod, 2023).

The nature of series [1]: Antiinflammatory activity in human 293/NFkB-Luc cells assessed as inhibition of TNF-alpha induced NFkaapaB activity at 50 uM preincubated for 15 mins followed by TNF-alpha induction and measured after 6 hrs by luminescence based assay relative to control. It is filed as functional. The settings on record: 6.25 h, time 375 min.
For series [2], the system named is RAW264.7. The series can be described thus: Antiinflammatory activity in mouse RAW264.7 cells assessed as inhibition of LPS-induced […] at 10 to 30 uM preincubated for 15 mins followed by LPS stimulation and measured after 4 hrs by qPCR analysis. The note with it: dose 10-30 µM, time 255.0 min. It is filed as functional, cell-based.
The test system of series [3] is RAW264.7. The series is described as follows: Antiinflammatory activity in mouse RAW264.7 cells assessed as inhibition of LPS-induced iNOS protein expression at 30 uM preincubated for 15 mins followed by LPS stimulation and measured after 24 hrs by Western blot analysis. It is filed as functional, cell-based. The settings on record: time 1215.0 min. Background: A western blot detects proteins with antibodies after separation by electrophoresis.

A short description of series [4]: Cytotoxicity against TNF-alpha induced human 293/NFkB-Luc cells assessed as increase in cell survival at 50 uM preincubated for 15 mins followed by TNF-alpha induction and measured after 6 hrs by MTT assay relative to control. It is filed as toxicity, cell-based. The settings on record: TNF-alpha induced 293/NFkB-Luc cells, time 375 min, read-out: Activity. Background: Tetrazolium dyes change colour on reduction, which living cells bring about.

The test system of series [5] is RAW264.7. The series can be described thus: Inhibition of NO production in LPS-stimulated mouse RAW264.7 cells at 50 uM preincubated for 15 mins followed by LPS stimulation and measured after 20 hrs by Griess reagent based assay relative to control. It is filed as functional. The note with it: RAW264.7, 20.25 h, time 1215 min. On the technique in general: The Griess reaction detects nitrite, a stable product of nitric oxide.

In series [6] the test system is RAW264.7. The series is described as follows: Inhibition of NO production in LPS-stimulated mouse RAW264.7 cells preincubated for 15 mins followed by LPS stimulation and measured after 20 hrs by Griess reagent based assay. It is filed as functional, cell-based.
Series [7] in a line: Cytotoxicity against LPS-stimulated mouse RAW264.7 cells assessed as cell survival at 50 uM preincubated for 15 mins followed by LPS stimulation and measured after 20 hrs by CCK-8 assay relative to control. It is filed as toxicity, cell-based. The note with it: LPS-stimulated RAW264.7 cells, time 1215 min, read-out: Activity.

For orientation: inhibition means the relative decrease from the control value, in per cent. As a reminder, the IC50 is the concentration needed to halve the response being measured. High values mean a need for much substance, low ones inhibition by little substance.

The source made the active and inactive calls. The rule behind the calls is not given here.

Turning to `COc1c(C)[nH]c2c(c1=O)[C@@H](CCCCCc1ccccc1)CCC2`, the inhibition at 50 µM in series [1] was under 50%; in series [5], 97.2%. In addition, the outcome in series [2] and in series [3] was Active. For the same molecule, the viability at 6 h, 50 µM in series [4] came out at 77.2%. This molecule also returned an IC50 in series [6] of 11.7 µM. For the same molecule, the viability at 20 h, 50 µM in series [7] was determined as 84.3%.
